Test [1] addresses T1, NLRP3 inflammasome (Homo sapiens, UniProt Q96P20). The experiment in a line: NLRP3 inflammasome assay, IL-1β ELISA in LPS- and ATP-treated THP-1 cells. To be noted: 50 ng/mL LPS + 5 mM ATP, compared to the LPS+ATP group, MCC950 1 uM, RS-D7 0.1-5 uM, others 0.2-5 uM, FIG. 2A.
Description: (§3) The assays were conducted using Human promonocytic leukemia THP-1 cells.
(§4) Human promonocytic leukemia THP-1 cells were cultured in RPMI and treated with Phorbol 12-myristate 13-acetate (PMA). […] The supernatant of PMA-differentiated THP-1 cells was collected at given time points after stimulation, and IL-1β level in cell culture supernatant was determined using IL-1 beta Human Uncoated ELISA Kit (Invitrogen). Supernatants and cell lysate were also evaluated by immunoblotting methods. The immunoreactive signals were developed using Immobilon Crescendo Western HRP substrate and the digitized image of the membrane was detected by ImageQuant LAS 4000mini (GE) according to the manufacturer's instructions.
The target in test [2] is T1, NLRP3 inflammasome. The experiment in a line: NLRP3 inflammasome assay, IL-1β ELISA in LPS- and MSU-treated THP-1 cells. To be noted: 50 ng/mL LPS + 400 ug/ml MSU, compared to the LPS+MSU group, RS-D7 0.1-5 uM, others 0.2-5 uM, FIG. 2B. (In an ELISA, binding on a coated surface is turned into a signal by an enzyme label.)
Description: as §3, §4
The subject of test [3] is TgM83 mice. The experiment in a line: Open field task (locomotion activity) in TgM83 mouse model. The format is in vivo.
Test [4] has as its system TgM83 mice. The experiment in a line: Rotarod task (motor coordination) in TgM83 mouse model. The format is in vivo. (Falling from the rotarod earlier than controls is read as motor impairment.)
The next test concerns IL-1β. The experiment in a line: Inflammation cytokine ELISA in the cerebellum of TgM83 mice: IL-1β. The format is in vivo, mouse. To be noted: 30 mg/kg oral gavage, sacrificed after 20 minutes, P<0.05, FIG. 5A. An excerpt: (§1) To characterize the inflammatory response after RS-D7 treatment, the level of inflammation cytokines, including interleukin-1 beta (IL-1β), interleukin-6 (IL-6), and Tumor Necrosis Factor-α (TNF-α), were examined in the cerebellum of male TgM83 and WT littermate mice (n=5 each) using enzyme-linked immunosorbent assay (ELISA). All the animals were sacrificed after 20-minutes RS-D7 treatment and the tissue samples were taken from […] of the mouse brain from male WT littermates, TgM83 mice and TgM83 mice with RS-D7 treatment (30 mg/kg, P.O.). These samples were dissected on ice and then stored at −80° C. before use. The ELISA experiment was performed using commercial kits for IL-1β (88-7013, Invitrogen, USA), IL-6 (88-7064, Invitrogen, USA) and TNF-α (88-7324, Invitrogen, USA). Procedures were followed according to manufactures protocols. Standards and samples were run in triplicates. OD values were read at 450 nm using a microplate reader (ThermoFisher Scientific, USA). Calculation of concentrations were done according to manufactures protocol using standard curve methods.
(§2) All of the data are presented as the mean+SE of the mean (SEM). The data was analyzed with one-way ANOVA in behavioral results. A post-hoc analysis was performed with Fisher's LSD test when F values reaching significant difference. […]

The test system of another test is IL-6. The experiment in a line: Inflammation cytokine ELISA in the cerebellum of TgM83 mice: IL-6. The format is in vivo, mouse. To be noted: 30 mg/kg oral gavage, sacrificed after 20 minutes, P<0.05, FIG. 5B.
Source text: as §1, §2

In another test the test system is TNF-α. The experiment in a line: Inflammation cytokine ELISA in the cerebellum of TgM83 mice: TNF-α. The format is in vivo, mouse. To be noted: 30 mg/kg oral gavage, sacrificed after 20 minutes, P<0.05, FIG. 5C.
Source text: as §1, §2

Test [5] addresses T1, NLRP3 inflammasome. The experiment in a line: NLRP3 inflammasome assay, western blot (immunoblotting) of LPS+MSU-treated PMA-primed THP-1 cells. To be noted: MCC950 1 uM, RS-D7 0.1, 1 and 5 uM, FIG. 1.
Description: as §3, §4

T1 sequence (Q96P20 whole entry): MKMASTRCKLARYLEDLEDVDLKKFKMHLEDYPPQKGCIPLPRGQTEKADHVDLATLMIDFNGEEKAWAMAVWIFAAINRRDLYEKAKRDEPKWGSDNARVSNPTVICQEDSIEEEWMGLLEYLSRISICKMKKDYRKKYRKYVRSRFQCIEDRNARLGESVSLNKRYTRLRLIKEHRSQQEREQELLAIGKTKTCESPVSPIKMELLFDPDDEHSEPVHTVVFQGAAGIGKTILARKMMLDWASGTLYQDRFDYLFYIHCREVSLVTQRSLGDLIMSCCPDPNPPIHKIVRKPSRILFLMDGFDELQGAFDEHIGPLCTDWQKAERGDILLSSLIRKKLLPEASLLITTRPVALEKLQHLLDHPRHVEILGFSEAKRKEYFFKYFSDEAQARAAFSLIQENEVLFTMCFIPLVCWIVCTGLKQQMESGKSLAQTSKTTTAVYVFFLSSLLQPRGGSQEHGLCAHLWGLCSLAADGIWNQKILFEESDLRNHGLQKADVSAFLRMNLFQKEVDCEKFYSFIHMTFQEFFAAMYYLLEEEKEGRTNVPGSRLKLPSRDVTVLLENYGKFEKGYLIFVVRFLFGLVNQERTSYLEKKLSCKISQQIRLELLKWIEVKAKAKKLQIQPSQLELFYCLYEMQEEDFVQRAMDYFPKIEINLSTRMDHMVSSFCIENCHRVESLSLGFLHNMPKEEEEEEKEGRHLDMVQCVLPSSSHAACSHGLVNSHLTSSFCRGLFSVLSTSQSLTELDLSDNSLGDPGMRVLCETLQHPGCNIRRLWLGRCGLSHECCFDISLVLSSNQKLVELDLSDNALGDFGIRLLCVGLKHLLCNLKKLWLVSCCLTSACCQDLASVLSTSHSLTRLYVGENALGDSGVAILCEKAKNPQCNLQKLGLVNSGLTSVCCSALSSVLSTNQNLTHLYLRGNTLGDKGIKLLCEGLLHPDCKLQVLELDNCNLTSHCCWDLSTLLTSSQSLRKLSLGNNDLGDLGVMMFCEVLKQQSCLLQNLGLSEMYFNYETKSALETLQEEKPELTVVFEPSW

In the case of `COc1c(C)cnc(CSc2nc3cc(OC(=O)CNC(=O)OC(C)(C)C)ccc3[nH]2)c1C` [compound 12093, 2-(((4-methoxy-3,5-dimethylpyridin-2-yl)methyl)thio)-1H-benzo[d]imidazol-5-yl (tert-butoxycarbonyl)glycinate], the “IL-1β level in cell culture supernatant (ELISA)” value on NLRP3 inflammasome [1] and at NLRP3 inflammasome [2] was “significantly lower levels” in each case.

Consider `COc1c(C)cnc(C[S+]([O-])c2nc3ccc(O)cc3[nH]2)c1C` (stereo not drawn) [RS-D7, 5-O-Desmethyl-Omeprazole], for which the “increase of distance moved versus TgM83 vehicle mice (rescue of hypolocomotion)” value in the test with TgM83 mice [3] (30 mg/kg oral gavage, one hour, P<0.05) is listed as 5,007 cm. Further, the “total distance moved in the open field test” value with TgM83 mice [3] (12-month-old, single dose 30 mg/kg PO, 1-hour period, mean±sem, TgM83 vehicle 15,472±942, WT 21,552±1,269) is 20,479±730 cm. Further, in the test with TgM83 mice [4] (30 mg/kg oral gavage, P<0.05), the “prolonging of the falling latency versus TgM83 vehicle mice” value came to 76.8 s. In addition, the “falling latency on the rotarod” value in the test on TgM83 mice [4] (single dose 30 mg/kg PO, accelerating 4-40 rpm, mean±sem, TgM83 vehicle 55.3±10.4, WT 99.5±7.5) was 132.1 ± 16.1 s. The “IL-1β level in the cerebellum (ELISA)” value in the test on IL-1β is listed as “significantly inhibit the overexpression”. The “IL-6 level in the cerebellum (ELISA)” value in the test on IL-6 was “significantly inhibit the overexpression”. In the test with TNF-α, the “TNF-α level in the cerebellum (ELISA)” value is on record as “significantly inhibit the overexpression”. In addition, the “IL-1β level in cell culture supernatant (ELISA)” value at NLRP3 inflammasome [1] is recorded as “significantly lower levels”. Also, the “IL-1β level in cell culture supernatant (ELISA)” value at NLRP3 inflammasome [2] is “significantly lower levels”. At NLRP3 inflammasome [5], the “expression of IL-1β (western blot)” value is given as “dose-dependent inhibition” and the “expression of caspase-1 (western blot)” value is “dose-dependent inhibition”.

On to `COc1c(C)cnc(CSc2nc3cc(C(=O)O)ccc3n2CCC2=CCCCC2)c1C` [compound 12083, 1-(2-(cyclohex-1-en-1-yl)ethyl)-2-(((4-methoxy-3,5-dimethylpyridin-2-yl)methyl)thio)-1H-benzo[d]imidazole-5-carboxylic acid], for which the “IL-1β level in cell culture supernatant (ELISA)” value at NLRP3 inflammasome [1] and on NLRP3 inflammasome [2] was “significantly lower levels” throughout.

The values are drawn from patent publication US20230018423A1, “BENZIMIDAZOLE DERIVATIVES FOR TREATMENT AND/OR PREVENTION OF DISEASES AND DISORDERS MEDIATED BY NLRP3” (YODA PHARMACEUTICALS INC., priority 2021, published 2023).
